Molecules are shown by their SMILES. Converted amounts (≈) assume the structure as drawn. The source made the active and inactive calls. The rule behind the calls is not given here. Bounds are passed on as bounds.

The test system of the first series is Lepidoptera. Nature of the series: Insecticidal activity against Lepidoptera. The series is classed as functional, organism-based.
Conditions: not given
On to `O=[N+]([O-])/N=C1\NCCN1Cc1ccc(Cl)nc1` [IMIDACLOPRID], for which the outcome was inactive.

Tested on in the next series: not listed separately
Nature of the series: Toxicity in Leuciscus idus (golden orfe) after 96 hr. The class given is organism-based. The following applies: in vivo.
In general, LC50 refers to the concentration lethal to half of the exposed cells or organisms. The low end stands for a more lethal substance, the high end for a less lethal substance. Regarding `O=[N+]([O-])NC1=NCCN1Cc1ccc(Cl)nc1` [IMIDACLOPRID], the LC50 at 96 h was 237 µg/mL (≈ 927 µM).

Tested on in the next series: not listed separately
Nature of the series: Toxicity in Rattus norvegicus (rat) […]. The series is classed as organism-based. The following applies: in vivo.
Broadly, the LD50 is the dose expected to kill half of the subjects tested. Higher therefore signals a less toxic substance. Take `O=[N+]([O-])NC1=NCCN1Cc1ccc(Cl)nc1` [IMIDACLOPRID]: the median lethal dose (LD50) was over 5000 mg/kg.

Tested on in a further series: not listed separately
The experiment in a line: Toxicity in po dosed Rattus norvegicus (rat). The class given is organism-based. The following applies: in vivo.
On to `O=[N+]([O-])NC1=NCCN1Cc1ccc(Cl)nc1` [IMIDACLOPRID], for which the LD50 turned out to be 450 mg/kg.

Another series relates to Nephotettix cincticeps. The experiment in a line: Insecticidal activity against Nephotettix cincticeps (green rice leafhopper) infested on rice leaf assessed as increase in mortality at 1000 ppm after 5 days. The series is classed as functional, organism-based.
Conditions: not given
On to `CCOC(=O)/C=C1\NCCN1Cc1ccc(Cl)nc1`, for which the result was inactive.

Take `N#C/C=C1\NCCN1Cc1ccc(Cl)nc1`: the result was inactive.

A further series concerns Nephotettix cincticeps. The experiment in a line: Insecticidal activity against Nephotettix cincticeps (green rice leafhopper) infested on rice leaf assessed as mortality after 5 days.
Conditions: not given
The series is classed as functional.
With `CCCCN1CCN(Cc2ccc(Cl)nc2)/C1=N/[N+](=O)[O-]`, the LC90 turned out to be 1.6 ppm.

As for `CCCCCN1CCN(Cc2ccc(Cl)nc2)/C1=N/[N+](=O)[O-]`, the LC90 was 40 ppm. Still for that read-out and setting: the result for `N=C1NCCN1Cc1ccc(Cl)nc1` [DESNITROIMIDACLOPRID] reads 200 ppm; that for `C#CCN1CCN(Cc2ccc(Cl)nc2)/C1=N/[N+](=O)[O-]`, 0.32 ppm; that for `N#CC(C#N)=C1NCCN1Cc1ccc(Cl)nc1`, 40 ppm. The same measure, in the same setting: the result for `O=C(c1ccccc1)N1CCN(Cc2ccc(Cl)nc2)/C1=N/[N+](=O)[O-]` reads 0.32 ppm; that for `CN1CCN(Cc2ccc(Cl)nc2)/C1=N/[N+](=O)[O-]`, 1.6 ppm; that for `O=[N+]([O-])/C=C1\NCCN1Cc1ccc(Cl)nc1`, 0.32 ppm.

For `C=CCN1CCN(Cc2ccc(Cl)nc2)/C1=N/[N+](=O)[O-]`, the LC90 was found to be 0.32 ppm. On the same count and under the same terms, the value for `CC(C)N1CCN(Cc2ccc(Cl)nc2)/C1=N/[N+](=O)[O-]` was 40 ppm; that for `CCCN1CCN(Cc2ccc(Cl)nc2)/C1=N/[N+](=O)[O-]` was 0.32 ppm; that for `O=C1NCCN1Cc1ccc(Cl)nc1` was 1000 ppm. For `CC(=O)N1CCN(Cc2ccc(Cl)nc2)/C1=N/[N+](=O)[O-]`, the LC90 was 0.32 ppm. The same measure, in the same setting: the result for `N#CN1CCN(Cc2ccc(Cl)nc2)/C1=N/[N+](=O)[O-]` reads 0.32 ppm; that for `O=[N+]([O-])/N=C1\NCCN1Cc1ccc(Cl)nc1` [IMIDACLOPRID], 0.32 ppm. On the same count and under the same terms, the value for `COP(=S)(OC)Oc1ccc([N+](=O)[O-])c(C)c1` [FENITROTHION] was 200 ppm; that for `CCN1CCN(Cc2ccc(Cl)nc2)/C1=N/[N+](=O)[O-]` was 8 ppm.
